In patent publication US20250230193A1, “CYCLIC COMPOUND HAVING SELECTIVE KRAS INHIBITORY EFFECT ON HRAS AND NRAS” (CHUGAI SEIYAKU KABUSHIKI KAISHA, priority 2022, published 2025):
*1 amine or outer side, *2 acyl side, *3 side chain or, on linkers, in order; H or OH if unused. Where a SMILES comes first, the peptide text is derived from it. Bridges are numbered along the chain shown (N, C = ends). [ ]: non-standard residue; d: D form. The star is where a group is joined. hPhe(3-Cl-4-CF3) = N[C@@H](CCc1ccc(C(F)(F)F)c(Cl)c1)C(=O)O; X20 = CCCN([C@@H](CC1CCC(F)(F)CC1)C(=O)[*:2])[*:1]; NMeGly(cPent) = CN[C@H](C(=O)O)C1CCCC1; NMeD = CN[C@@H](CC(=O)O)C(=O)O; NMeL = CN[C@@H](CC(C)C)C(=O)O; Morpholide = C1CN(*)CCO1; Ac5c = NC1(C(=O)O)CCCC1; Sar = CNCC(=O)O

How the values were obtained:
[1] = target: GDP-bound HRAS wild-type protein (Homo sapiens, UniProt P01112); assay: Binding to HRAS by surface plasmon resonance (SPR), Single Cycle Kinetics
[2] = target: GDP-bound NRAS wild-type protein (Homo sapiens, UniProt P01111); assay: Binding to NRAS by surface plasmon resonance (SPR), Single Cycle Kinetics
[3] = SPR, GDP-bound HRAS wild-type vs GDP-bound KRAS wild-type
[4] = SPR, GDP-bound NRAS wild-type vs GDP-bound KRAS wild-type
[5] = SPR, GDP-bound wild-type proteins

Sequence of GDP-bound NRAS wild-type protein (P01111 whole entry): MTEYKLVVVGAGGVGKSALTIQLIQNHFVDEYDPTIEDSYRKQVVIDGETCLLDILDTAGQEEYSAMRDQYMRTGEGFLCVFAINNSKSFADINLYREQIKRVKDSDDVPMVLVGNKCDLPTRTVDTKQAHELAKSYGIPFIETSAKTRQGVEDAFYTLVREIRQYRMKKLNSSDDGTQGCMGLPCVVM
Sequence of GDP-bound HRAS wild-type protein (P01112 whole entry): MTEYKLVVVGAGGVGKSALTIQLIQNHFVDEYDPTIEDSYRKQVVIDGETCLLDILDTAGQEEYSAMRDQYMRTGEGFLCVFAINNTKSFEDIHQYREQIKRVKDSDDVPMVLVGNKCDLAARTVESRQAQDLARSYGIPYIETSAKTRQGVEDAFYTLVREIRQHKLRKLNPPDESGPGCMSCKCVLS

SMILES: CC[C@H](C)[C@@H]1NC(=O)[C@H](CC)N(C)C(=O)C[C@@H](C(=O)N(C)C)N(C)C(=O)[C@H](C2CCCC2)N(C)C(=O)C2(CCC2)NC(=O)[C@@H]2CCN2C(=O)[C@H](CCc2cc(F)c(C(F)(F)F)c(F)c2)NC(=O)CN(C)C(=O)[C@H](Cc2ccc(C(F)(F)F)cc2)N2CCCCC[C@@H](C2=O)N(C)C(=O)CN(C)C1=O [PP0654]
- HRAS/KRAS (ratio of KD value with respect to GDP-bound HRAS wild-type protein to KD value with respect to KRAS) ([1]; SPR): B (a compound having 3 or more and less than 10 is denoted as B)
- NRAS/KRAS (ratio of KD value with respect to GDP-bound NRAS wild-type protein to KD value with respect to KRAS) ([2]; SPR): B (a compound having 3 or more and less than 10 is denoted as B)

SMILES: CCC[C@H]1C(=O)N[C@@H]([C@@H](C)CC)C(=O)N[C@@H](C)C(=O)N(C)[C@H]2C/C=C\CCN(C2=O)[C@@H](Cc2ccc(C(F)(F)F)cc2)C(=O)N(C)CC(=O)N[C@@H](CCc2cc(F)c(C(F)(F)F)c(F)c2)C(=O)N2C[C@H](OCC)C[C@H]2C(=O)NC2(CC(C)(C)C2)C(=O)N(C)[C@@H](C2CCCC2)C(=O)N(C)[C@H](C(=O)N(C)C)CC(=O)N1C [PP1927]
- HRAS/KRAS (ratio of KD value for HRAS to KD value for KRAS) ([1]; KD ratio, GDP-bound HRAS wild-type vs GDP-bound KRAS wild-type, SPR): A (a compound having 10 or more and less than 20 is denoted as A)
- NRAS/KRAS (ratio of KD value for NRAS to KD value for KRAS) ([2]; KD ratio, GDP-bound NRAS wild-type vs GDP-bound KRAS wild-type, SPR): A (a compound having 10 or more and less than 20 is denoted as A)

SMILES: CCCOC[C@H]1C(=O)N[C@@H]([C@@H](C)CC)C(=O)N(C)CC(=O)N(C)[C@H]2C/C=C\CCN(C2=O)[C@@H](Cc2ccc(C)cc2)C(=O)N(C)CC(=O)N[C@@H](CCc2cc(F)c(C(F)(F)F)c(F)c2)C(=O)N2C[C@H](CCC)C[C@H]2C(=O)NC2(CCCC2)C(=O)N(C)[C@@H](C2CCCC2)C(=O)N(C)[C@H](C(=O)N(C)C)CC(=O)N1C [PP2229]
- HRAS/KRAS (ratio of KD value with respect to HRAS to KD value with respect to KRAS) [1, 3]: A (a compound having 10 or more and less than 20 is denoted as A)
- NRAS/KRAS (ratio of KD value with respect to NRAS to KD value with respect to KRAS) [2, 4]: A (a compound having 10 or more and less than 20 is denoted as A)

SMILES: CCCN1C(=O)CN(C)C(=O)CN(C)C(=O)[C@H]([C@@H](C)CC)NC(=O)[C@H](CC(C)C)N(C)C(=O)C[C@@H](C(=O)N2CCOCC2)N(C)C(=O)[C@H](C2CCCC2)N(C)C(=O)C2(CCCC2)NC(=O)[C@@H]2CCCN2C(=O)[C@H](CCc2ccc(C(F)(F)F)c(Cl)c2)NC(=O)CN(C)C(=O)[C@@H]1CC1CCC(F)(F)CC1 [PP0526] ([NMeL]I[Sar][Sar][X20][Sar][hPhe(3-Cl-4-CF3)]P[Ac5c][NMeGly(cPent)][NMeD]-Morpholide; lactam N-11)
- HRAS/KRAS (ratio of KD value with respect to GDP-bound HRAS wild-type protein to KD value with respect to KRAS) ([1]; SPR): C (A compound having a KD ratio of 0.1 or more and less than 3 is denoted as C)
- NRAS/KRAS (ratio of KD value with respect to GDP-bound NRAS wild-type protein to KD value with respect to KRAS) ([2]; SPR): B (a compound having 3 or more and less than 10 is denoted as B)

SMILES: CCO[C@@H]1C[C@H]2C(=O)NC3(CCC3)C(=O)N(C)[C@@H](C(CC)CC)C(=O)N(C)[C@H](C(=O)N3CCCCC3)CC(=O)N(C)[C@H]3CCCCC/C=C/c4ccc(cc4)C[C@@H](C(=O)N(C)CC(=O)N[C@@H](CCc4ccc(Cl)c(Cl)c4)C(=O)N2C1)N1CC/C=C\C[C@@H](C1=O)N(C)C(=O)CN(C)C(=O)[C@H]([C@@H](C)CC)NC3=O [PP3051]
- HRAS/KRAS (ratio of KD value with respect to GDP-bound HRAS wild-type protein to KD value with respect to KRAS) [1, 5]: A (a compound having 10 or more and less than 20 is denoted as A)
- NRAS/KRAS (ratio of KD value with respect to GDP-bound NRAS wild-type protein to KD value with respect to KRAS) [2, 5]: AA (a compound having 20 or more is denoted as AA)

SMILES: CCC[C@H]1C(=O)N[C@@H](CC(C)C)C(=O)N(CC)CC(=O)N(C)[C@H]2C/C=C\CCN(C2=O)[C@@H](Cc2ccc(C)cc2)C(=O)N(C)CC(=O)N[C@@H](CCc2ccc(C(F)(F)F)c(Cl)c2)C(=O)N2C[C@H](OCC)C[C@H]2C(=O)NC2(CCC2)C(=O)N(C)[C@@H](C2CCCC2)C(=O)N(C)[C@H](C(=O)N(C)C)CC(=O)N1C [PP2545]
- HRAS/KRAS (ratio of KD value with respect to GDP-bound HRAS wild-type protein to KD value with respect to KRAS) ([1]; class symbols): A (a compound having 10 or more and less than 20 is denoted as A)
- NRAS/KRAS (ratio of KD value with respect to GDP-bound NRAS wild-type protein to KD value with respect to KRAS) ([2]; class symbols): A (a compound having 10 or more and less than 20 is denoted as A)

SMILES: CCOC[C@H]1C(=O)N[C@@H]([C@@H](C)CC)C(=O)N(C)CC(=O)N(C)[C@H]2C/C=C\CCN(C2=O)[C@@H](Cc2ccc(C)cc2)C(=O)N(C)CC(=O)N[C@@H](CCc2cc(F)c(C(F)(F)F)c(F)c2)C(=O)N2C[C@@H](C)C[C@H]2C(=O)NC2(CC(C)(C)C2)C(=O)N(C)[C@@H](C2CCCC2)C(=O)N(C)[C@H](C(=O)N(C)C)CC(=O)N1C [PP2439]
- HRAS/KRAS (ratio of KD value with respect to HRAS to KD value with respect to KRAS) [1, 3]: A (a compound having 10 or more and less than 20 is denoted as A)
- NRAS/KRAS (ratio of KD value with respect to NRAS to KD value with respect to KRAS) [2, 4]: A (a compound having 10 or more and less than 20 is denoted as A)
